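Compound exposure: 48 hours, 5 concentrations, 96-well plates. GI50 = concentration required for 50% inhibition of growth. Definition used: TGI = concentration required for complete inhibition of growth.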
What was measured:
Assay in all cases: NCI-60 cell line screen, 48 h; in the data active = GI50 below about 0.43 µM; inactive = the rest
KM12 colon = system: KM12 colon
MDA-MB-435 = system: MDA-MB-435
OVCAR-8 ovarian = system: OVCAR-8 ovarian
MCF7 breast = system: MCF7 breast
SK-MEL-2 melanoma = system: SK-MEL-2 melanoma
SF-295 CNS = system: SF-295 CNS
HS 578T breast = system: HS 578T breast
UO-31 renal = system: UO-31 renal
RPMI-8226 leukemia = system: RPMI-8226 leukemia
TK-10 renal = system: TK-10 renal
SNB-19 CNS = system: SNB-19 CNS
SK-OV-3 ovarian = system: SK-OV-3 ovarian
SNB-75 CNS = system: SNB-75 CNS
A549 NSCLC = system: A549 NSCLC
HCT-15 colon = system: HCT-15 colon
OVCAR-5 ovarian = system: OVCAR-5 ovarian
HCC-2998 colon = system: HCC-2998 colon
HOP-62 NSCLC = system: HOP-62 NSCLC
HT29 colon = system: HT29 colon
SN12C renal = system: SN12C renal
UACC-257 melanoma = system: UACC-257 melanoma
K-562 leukemia = system: K-562 leukemia
OVCAR-3 ovarian = system: OVCAR-3 ovarian
EKVX NSCLC = system: EKVX NSCLC
IGROV1 ovarian = system: IGROV1 ovarian
T-47D breast = system: T-47D breast
LOX IMVI melanoma = system: LOX IMVI melanoma
SW-620 colon = system: SW-620 colon
SK-MEL-5 melanoma = system: SK-MEL-5 melanoma
M14 melanoma = system: M14 melanoma
A498 renal = system: A498 renal
ACHN renal = system: ACHN renal
BT-549 breast = system: BT-549 breast
PC-3 prostate = system: PC-3 prostate
SK-MEL-28 melanoma = system: SK-MEL-28 melanoma
COLO 205 colon = system: COLO 205 colon
SF-268 CNS = system: SF-268 CNS
HCT-116 colon = system: HCT-116 colon
MDA-MB-231 breast = system: MDA-MB-231 breast
NCI-H522 lung = system: NCI-H522 lung
786-0 renal = system: 786-0 renal
SF-539 CNS = system: SF-539 CNS
NCI-H23 lung = system: NCI-H23 lung
NCI/ADR-RES ovarian = system: NCI/ADR-RES ovarian
CCRF-CEM leukemia = system: CCRF-CEM leukemia
UACC-62 melanoma = system: UACC-62 melanoma
HOP-92 NSCLC = system: HOP-92 NSCLC
U251 CNS = system: U251 CNS
OVCAR-4 ovarian = system: OVCAR-4 ovarian
DU-145 prostate = system: DU-145 prostate
RXF 393 renal = system: RXF 393 renal
SR leukemia = system: SR leukemia
MOLT-4 leukemia = system: MOLT-4 leukemia
CAKI-1 renal = system: CAKI-1 renal
NCI-H460 lung = system: NCI-H460 lung
NCI-H226 lung = system: NCI-H226 lung
HL-60(TB) leukemia = system: HL-60(TB) leukemia

O=c1nc(Oc2c(F)c(F)c(F)c(F)c2F)ccn1C1OC(CO)C(O)C1O (configuration not stated)
> 100 µM: TGI (KM12 colon) | TGI (MDA-MB-435) | TGI (OVCAR-8 ovarian) | TGI (MCF7 breast) | TGI (SK-MEL-2 melanoma) | TGI (SF-295 CNS) | TGI (HS 578T breast) | TGI (UO-31 renal) | TGI (RPMI-8226 leukemia) | TGI (TK-10 renal) | TGI (SNB-19 CNS) | TGI (SK-OV-3 ovarian) | TGI (SNB-75 CNS) | TGI (A549 NSCLC) | TGI (HCT-15 colon) | TGI (OVCAR-5 ovarian) | TGI (HCC-2998 colon) | TGI (HOP-62 NSCLC) | TGI (HT29 colon) | TGI (SN12C renal) | TGI (UACC-257 melanoma) | TGI (K-562 leukemia) | TGI (OVCAR-3 ovarian) | TGI (EKVX NSCLC) | TGI (IGROV1 ovarian) | TGI (T-47D breast) | TGI (LOX IMVI melanoma) | TGI (SW-620 colon) | TGI (SK-MEL-5 melanoma) | TGI (M14 melanoma) | TGI (A498 renal) | TGI (ACHN renal) | TGI (BT-549 breast) | TGI (PC-3 prostate) | TGI (SK-MEL-28 melanoma) | TGI (COLO 205 colon) | TGI (SF-268 CNS) | TGI (HCT-116 colon) | TGI (MDA-MB-231 breast) | TGI (NCI-H522 lung) | TGI (786-0 renal) | TGI (SF-539 CNS) | TGI (NCI-H23 lung) | TGI (NCI/ADR-RES ovarian) | TGI (CCRF-CEM leukemia) | TGI (UACC-62 melanoma) | TGI (HOP-92 NSCLC) | TGI (U251 CNS) | TGI (OVCAR-4 ovarian) | TGI (DU-145 prostate) | TGI (RXF 393 renal) | TGI (SR leukemia) | TGI (MOLT-4 leukemia) | TGI (CAKI-1 renal)

Cc1cccc(NC(=O)c2sc3nc4c(cc3c2N)CCCC4)c1
60.5 µM: TGI (SF-539 CNS)
23.8 µM: TGI (SF-295 CNS)
73.5 µM: TGI (NCI-H226 lung)
90.6 µM: TGI (TK-10 renal)
inactive: GI50 (KM12 colon) 3.32 µM | GI50 (OVCAR-8 ovarian) 20.9 µM | GI50 (MCF7 breast) 1.15 µM | GI50 (SK-MEL-2 melanoma) 8.99 µM | GI50 (SF-295 CNS) 3.51 µM | GI50 (NCI-H460 lung) 5.25 µM | GI50 (HS 578T breast) 9.92 µM | GI50 (UO-31 renal) 25.2 µM | GI50 (RPMI-8226 leukemia) 5.74 µM | GI50 (TK-10 renal) 13.7 µM | GI50 (SNB-19 CNS) 6.92 µM | GI50 (SK-OV-3 ovarian) 12.9 µM | GI50 (SNB-75 CNS) 3.84 µM | GI50 (A549 NSCLC) 8.33 µM | GI50 (HCT-15 colon) 0.845 µM | GI50 (NCI-H226 lung) 9.68 µM | GI50 (OVCAR-5 ovarian) > 100 µM | GI50 (HCC-2998 colon) 45.4 µM | GI50 (HOP-62 NSCLC) 4.97 µM | GI50 (SN12C renal) 24 µM | GI50 (UACC-257 melanoma) > 100 µM | GI50 (OVCAR-3 ovarian) 4.84 µM | GI50 (IGROV1 ovarian) 17.7 µM | GI50 (T-47D breast) 10.2 µM | GI50 (LOX IMVI melanoma) 8.52 µM | GI50 (SW-620 colon) 3.42 µM | GI50 (SK-MEL-5 melanoma) 2.3 µM | GI50 (M14 melanoma) 2 µM | GI50 (A498 renal) 5.87 µM | GI50 (HL-60(TB) leukemia) 2.36 µM | GI50 (ACHN renal) 10.5 µM | GI50 (BT-549 breast) 7.56 µM | GI50 (PC-3 prostate) 16.2 µM | GI50 (SK-MEL-28 melanoma) 9.23 µM | GI50 (COLO 205 colon) 4.96 µM | GI50 (SF-268 CNS) 10.7 µM | GI50 (HCT-116 colon) 2.59 µM | GI50 (MDA-MB-231 breast) 14.8 µM | GI50 (NCI-H522 lung) 16.4 µM | GI50 (786-0 renal) 4.13 µM | GI50 (SF-539 CNS) 4.74 µM | GI50 (NCI-H23 lung) 27.8 µM | GI50 (NCI/ADR-RES ovarian) 4.59 µM | GI50 (CCRF-CEM leukemia) 4.46 µM | GI50 (UACC-62 melanoma) 2.19 µM | GI50 (HOP-92 NSCLC) 9 µM | GI50 (U251 CNS) 8.33 µM | GI50 (OVCAR-4 ovarian) 3.22 µM | GI50 (DU-145 prostate) 13.4 µM | GI50 (RXF 393 renal) 4.71 µM | GI50 (SR leukemia) 0.549 µM | GI50 (MOLT-4 leukemia) 12 µM | GI50 (CAKI-1 renal) 6.7 µM
39.1 µM: TGI (OVCAR-4 ovarian)
66.4 µM: TGI (A498 renal)
36.8 µM: TGI (HOP-62 NSCLC)
63.9 µM: TGI (SK-OV-3 ovarian)
17.7 µM: TGI (HL-60(TB) leukemia)
2 µM: TGI (MDA-MB-435)
32.4 µM: TGI (786-0 renal)
45.2 µM: TGI (U251 CNS)
11.2 µM: TGI (SR leukemia)
23.2 µM: TGI (RXF 393 renal)
52.2 µM: TGI (MDA-MB-231 breast)
> 100 µM: TGI (KM12 colon) | TGI (OVCAR-8 ovarian) | TGI (MCF7 breast) | TGI (NCI-H460 lung) | TGI (HS 578T breast) | TGI (UO-31 renal) | TGI (RPMI-8226 leukemia) | TGI (A549 NSCLC) | TGI (HCT-15 colon) | TGI (OVCAR-5 ovarian) | TGI (HCC-2998 colon) | TGI (SN12C renal) | TGI (UACC-257 melanoma) | TGI (OVCAR-3 ovarian) | TGI (IGROV1 ovarian) | TGI (T-47D breast) | TGI (LOX IMVI melanoma) | TGI (SW-620 colon) | TGI (M14 melanoma) | TGI (ACHN renal) | TGI (PC-3 prostate) | TGI (SK-MEL-28 melanoma) | TGI (COLO 205 colon) | TGI (SF-268 CNS) | TGI (HCT-116 colon) | TGI (NCI-H522 lung) | TGI (NCI-H23 lung) | TGI (NCI/ADR-RES ovarian) | TGI (CCRF-CEM leukemia) | TGI (UACC-62 melanoma) | TGI (DU-145 prostate) | TGI (MOLT-4 leukemia) | TGI (CAKI-1 renal)
62 µM: TGI (BT-549 breast)
68 µM: TGI (SNB-19 CNS)
active: GI50 (MDA-MB-435) 0.305 µM
18.9 µM: TGI (SNB-75 CNS)
32 µM: TGI (HOP-92 NSCLC)
47.3 µM: TGI (SK-MEL-5 melanoma)
52.5 µM: TGI (SK-MEL-2 melanoma)

Reference: PubChem BioAssay (NCI)
